From patent US12013389B2, “Method of evaluating pathological conditions of heart failure” (NATIONAL UNIVERSITY CORPORATION HOKKAIDO UNIVERSITY, priority 2018, dated 2024)

Key:
[1] = tested on: mitochondrial proteins; test: Succinylation assay of mitochondrial proteins (isolated mouse heart mitochondria, western blotting); type: biochemical, mice
Procedure: (§1) First, the heart (left ventricle) extracted from euthanized mice under anesthesia was immersed in a tissue preservation solution BIOPS (2.77 mM CaK2EGTA, 7.23 mM K2EGTA, 5.77 mM Na2ATP, 6.56 mM MgCl2/6H2O, 20 mM taurine, 15 mM Na2 phosphocreatine, 20 mM imidazole, 0.5 mM dithiothreitol, 50 mM MES hydrate, pH 7.1), and then shredded in a tissue isolation buffer (100 mM sucrose, 100 mM KCl, 50 mM tris-HCl, 1 mM KH2PO4, 0.1 mM EGTA, 0.2% bovine serum albumin, pH 7.4). Protease was added to this shredded product to cause an enzyme reaction and homogenization was then performed. The obtained homogenized solution was centrifuged to remove the supernatant, and the precipitate was washed with a tissue isolation buffer twice. A suspension buffer (225 mM mannitol, 75 mM sucrose, 10 mM tris-HCl, 0.1 mM EDTA, pH 7.4) was added to the washed precipitate and the precipitate was dissolved.
[…] Then, the succinylation level of the mitochondrial proteins was measured by western blotting (WB).
Specifically, first, succinyl-CoA (0, 1, 3, or 10 mM) was added to the mitochondria collected from the left ventricle of wild type mice (C57BL/6J), succinylation assay was performed, and the succinylation level of the mitochondrial proteins (the relative amount when the amount of succinylation proteins without addition of succinyl-CoA (0 mM) was set as 1) was examined. […]

[2] = target: T1, mitochondrial complex II (Mus musculus, UniProt Q8K2B3+Q9CQA3+Q9CXV1+Q9CZB0); test: Mitochondrial respiratory capacity related to complex II after adding succinyl-CoA to isolated mitochondria (high-resolution respiration measurement); type: biochemical; conditions: mitochondria isolated from wild type mice
T1 construct: from tissue; host or cells: mitochondria isolated from the left ventricle (myocardium) of C57BL/6J mice (wild type, sham control or HF model)
T1 sequence (Q8K2B3 43-664): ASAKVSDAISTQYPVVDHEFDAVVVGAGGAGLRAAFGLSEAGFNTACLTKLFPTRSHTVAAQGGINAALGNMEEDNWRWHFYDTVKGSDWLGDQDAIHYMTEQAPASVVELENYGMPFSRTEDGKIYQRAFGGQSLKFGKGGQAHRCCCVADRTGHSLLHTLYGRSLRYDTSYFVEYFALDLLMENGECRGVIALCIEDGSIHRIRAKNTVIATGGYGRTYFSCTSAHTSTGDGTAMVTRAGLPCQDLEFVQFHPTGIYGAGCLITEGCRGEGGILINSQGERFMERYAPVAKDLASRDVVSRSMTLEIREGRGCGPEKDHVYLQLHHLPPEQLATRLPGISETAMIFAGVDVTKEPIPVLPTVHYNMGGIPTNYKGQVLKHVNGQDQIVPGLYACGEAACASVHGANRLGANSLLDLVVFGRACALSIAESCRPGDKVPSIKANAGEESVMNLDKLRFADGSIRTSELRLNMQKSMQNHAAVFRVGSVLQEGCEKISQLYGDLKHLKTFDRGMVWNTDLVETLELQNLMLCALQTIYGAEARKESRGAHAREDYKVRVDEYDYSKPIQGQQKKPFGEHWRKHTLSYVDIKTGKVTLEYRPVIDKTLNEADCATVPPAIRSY
T1 sequence (Q9CQA3 29-282 limits assumed): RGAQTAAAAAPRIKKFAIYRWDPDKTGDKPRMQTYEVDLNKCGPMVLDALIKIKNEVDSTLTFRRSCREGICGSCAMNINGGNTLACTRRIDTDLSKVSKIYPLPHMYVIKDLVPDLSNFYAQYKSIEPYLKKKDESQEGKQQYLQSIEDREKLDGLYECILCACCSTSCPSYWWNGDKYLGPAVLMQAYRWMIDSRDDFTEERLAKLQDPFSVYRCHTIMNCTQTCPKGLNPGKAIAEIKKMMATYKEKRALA
T1 sequence (Q9CZB0 30-169): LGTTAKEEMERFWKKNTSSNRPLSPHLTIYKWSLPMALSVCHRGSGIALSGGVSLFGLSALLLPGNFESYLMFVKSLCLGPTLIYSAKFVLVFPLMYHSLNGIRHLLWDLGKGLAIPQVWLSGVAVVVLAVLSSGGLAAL
T1 sequence (Q9CXV1 57-159): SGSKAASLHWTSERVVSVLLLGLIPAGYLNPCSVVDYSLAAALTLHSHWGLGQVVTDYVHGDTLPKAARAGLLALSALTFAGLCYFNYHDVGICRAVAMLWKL
Procedure: as §1, with “A suspension buffer (225 mM mannitol, 75 mM sucrose, 10 mM tris-HCl, 0.1 mM EDTA, pH 7.4) was added to the washed precipitate and the precipitate was dissolved.” left out
A mitochondrial respiratory capacity (oxidative phosphorylation: OXPHOS) was measured by a high-resolution respiration measurement method. […] An oxygen consumption amount was calculated using Datlab software, and in this case, correction was performed per tissue weight or per mitochondrion. […]
(2) 10 mmol/L of glutamic acid, 2 mmol/L of malic acid, and 5 mmol/L of pyruvic acid, which are substrates related to mitochondrial complex I, were added, and the oxygen consumption amount was measured (CI_OXPHOS).
(§2) (3) 10 mmol/L of succinic acid, which is a substrate related to mitochondrial complex II, was added, and the oxygen consumption amount was measured (CI+II_OXPHOS). […]

[3] = tested on: mitochondrial complex II; test: Expression level of mitochondrial complex II per mitochondrion (blue native method, anti-SDHA); type: biochemical; conditions: mitochondria isolated from HF model mice treated with 1 mM succinyl-CoA
Procedure: Based on the results so far, it was clearly understood that the respiratory capacity related to mitochondrial complex II could be controlled by the expression level of mitochondrial complex II per mitochondrion. Therefore, for the mitochondria isolated from the control mice and the HF model mice and the mitochondria isolated from the HF model mice and then treated with 1 mM succinyl-CoA, the expression level of mitochondrial complex II per mitochondrion was evaluated using anti-SDHA mouse monoclonal antibodies (1:1,000, ab14715, commercially available from Abeam) by a blue native method.

[4] = tested on: H9c2 cells; test: Succinylation level of mitochondrial proteins of glycine-treated H9c2 cells; type: cell-based
Procedure: (§3) When glycine was used, glycine was added to the culture medium for cultured H9c2 cells so that the concentration was 100 mM, and the cells were cultured for 6 hours. After culturing, the cells were collected and mitochondria were isolated. Then, the succinylation level of the mitochondrial proteins was measured by WB.
(§4) In addition, in the heme synthesis process, glycine and succinyl-CoA reacted to synthesize ALA. […] The succinylation level and the respiratory capacity related to mitochondrial complex II were examined.

[5] = tested on: H9c2 cells; test: Respiratory capacity related to mitochondrial complex II in glycine-treated H9c2 cells; type: cell-based
Procedure: as §3, §4

[6] = tested on: mitochondrial complex II; test: Respiratory capacity related to complex II in myocardial mitochondria of HF model mice given ALA; type: in vivo; conditions: ALA 50 mg/L in drinking water (6 to 8 mg/kg/day), day 28 after operation
Procedure: (§5) A mitochondrial respiratory capacity (oxidative phosphorylation: OXPHOS) was measured by a high-resolution respiration measurement method. Specifically, isolated mitochondria (50 to 100 μg) or myocardial fibrous tissues (0.5 to 3 mg) after the cell membrane permeation treatment were used as a test sample, and measurement was performed using a mitochondrial oxygen activity/cell metabolic energy analyzing device (product name: “OROBOROS Oxygraph-2 k,” commercially available from Innsbruck) (hereinafter referred to as a “mitochondrial respiratory capacity measurement device” in some cases) under an environment at 37° C. according to the following protocol. An oxygen consumption amount was calculated using Datlab software, and in this case, correction was performed per tissue weight or per mitochondrion.
(4) In order to observe the respiration of OXPHOS of mitochondrial complex II alone, 0.5 μmol/L of rotenone, which is an inhibitor of mitochondrial complex I, was added and the oxygen consumption amount was measured (CII_OXPHOS).
(§6) The left anterior descending coronary artery of the heart of 10- to 12-week old male C57BL/6J mice (body weight of 23 to 26 g) was ligated to cause myocardial infarction (MI). […]

[7] = tested on: mitochondrial complex I and mitochondrial complex II; test: Respiratory capacity related to complex I and complex II in myocardial mitochondria of HF model mice given ALA; type: in vivo; conditions: ALA 50 mg/L in drinking water (6 to 8 mg/kg/day), day 28 after operation
Procedure: as §5, §2
(§7) Specifically, after the HF model mice were underwent a left coronary artery ligation operation, an aqueous solution (50 mg/L) containing ALA (≥98%, commercially available from Sigma Aldrich) was administered by forced drinking (6 to 8 mg/kg/day), and on the 28th day after the operation, the mitochondrial functions were measured using echocardiography and a mitochondrial respiratory capacity measurement device. […]

[8] = tested on: mitochondrial complex IV; test: Respiratory capacity related to complex IV in myocardial mitochondria of HF model mice given ALA; type: in vivo; conditions: ALA 50 mg/L in drinking water (6 to 8 mg/kg/day), day 28 after operation
Procedure: as §5
(8) The respiratory capacity when 2 mmol/L of ascorbic acid and 0.5 mmol/L of TMPD (N,N,N′,N′-tetramethyl-p-phenylenediamine), which are substrates of mitochondrial complex IV, were added was measured. Next, the respiratory capacity when 100 mmol/L of sodium azide as an inhibitor was added was measured, and a difference therebetween was calculated (CIV_OXPHOS).
as §6

[9] = tested on: HF model mice; test: Echocardiography of HF model mice given ALA; type: in vivo; conditions: HF model mice with ALA vs without ALA; 6 to 8 mg/kg/day; day 28 after operation
Procedure: Echocardiography was performed under anesthesia ([…] 8 μL/gBW, intraperitoneal administration) with a short duration of action and least impact on the cardiovascular system. The limbs and tail were fixed in a lying position to an examination table with a tape and the anterior chest wall of the mice was depilated with a depilatory cream. Using an ultrasonic diagnostic device and a 12 MHz linear probe, optimal 2D parasternal short-axis images were visualized at the papillary muscle level. Switching to an M mode method was performed, recording was performed at a recording paper speed of 40 mm/s, and a heart rate, a left ventricular end-diastolic dimension, a left ventricular end-systolic dimension, a left ventricular anterior wall thickness, a left ventricular posterior wall thickness, and a left ventricular fractional shortening were measured.
(§8) The left anterior descending coronary artery of the heart of 10- to 12-week old male C57BL/6J mice (body weight of 23 to 26 g) was ligated to cause myocardial infarction (MI). The body weight of the mice was measured before the operation, a mixed anesthetic containing 3 types including 0.3 mg/kg BW of medetomedine hydrochloride, 4.0 mg/kg BW of midazolam, and 5.0 mg/kg BW of butorphanol tartrate was intraperitoneally administered, and it was confirmed that the depth of anesthesia was sufficient. […]

[10] = tested on: HF model mice; test: Exercise capacity (treadmill) of HF model mice given ALA; type: in vivo; conditions: HF model mice with ALA vs without ALA; treadmill run until exhaustion
Procedure: as §8, §7
In addition, the exercise capacities of the HF model mice without administration of ALA and the HF model mice to which ALA was administered were examined. The exercise capacity was expressed as a product of an exercise time and a body weight. The exercise time was measured using a small animal treadmill, and mice were at rest for 10 minutes, and w-up for 10 minutes (6 m/min, inclination of 10 degrees), and then forced to run until exhaustion by increasing a load (2 m/2 min). […]

[11] = H9c2 cells treated with glycine, succinyl-CoA added

## CC(C)(COP(=O)(O)OP(=O)(O)OC[C@H]1O[C@@H](n2cnc3c(N)ncnc32)[C@H](O)[C@@H]1OP(=O)(O)O)[C@@H](O)C(=O)NCCC(=O)NCCSC(=O)CCC(=O)O [succinyl-CoA]
[1]; mitochondria from left ventricle of wild type mice (C57BL/6J), succinyl-CoA 1, 3 or 10 mM, relative to 0 mM
  succinylation in the mitochondrial protein: increased
[1]; mitochondria isolated from HF model mice, 0.1 mM succinyl-CoA
  succinylation level of mitochondrial proteins: improved
[2]; 1 mM succinyl-CoA
  respiratory capacity related to mitochondrial complex II: increased
[2]; 10 mM succinyl-CoA
  respiratory capacity related to mitochondrial complex II: significantly decreased
[3]
  amount of mitochondrial complex II (expression level per mitochondrion): remained reduced
[4]; [11]
  succinylation level of mitochondrial proteins: improved
[5]; [11]
  respiratory capacity related to mitochondrial complex II: improved

## NCC(=O)O [glycine, reference compound]
[4]; H9c2 cells treated with glycine (100 mM, 6 hours)
  succinylation level of mitochondrial proteins: decreased
[5]; cells treated with glycine
  respiratory capacity related to mitochondrial complex II: decreases

## NCC(=O)CCC(=O)O [ALA, 5-aminolevulinic acid]
[6]
  respiratory capacity related to mitochondrial complex II: improved
[7]
  respiratory capacity related to mitochondrial complex I and mitochondrial complex II: improved
[8]
  respiratory capacity related to mitochondrial complex IV: improved
[9]
  left ventricular fractional shortening (% FS): significantly improved
[10]
  exercise capacity (exercise time x body weight): significantly improved
